This passage reports EC50 results from patent US12110305B2, “Prodrugs of phosphonamide nucleotide analogues and their pharmaceutical use” (priority 2020, dated 2024).

Each structure is given as a SMILES string. Bounds are passed on as bounds.

The test system of this test is HIV-1 (IIIB). Kind of test: Antiviral (HIV) assay in MT-4 cells. The format is cell-based. As to conditions: Human immunodeficiency virus 1, MT4, 120 h; HIV-1 IIIB in MT-4 cells, 5 days incubation, Cell Titer Glo; average of at least two independent experiments. The method in brief: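 MT-4 cells, infected with HIV-1 IIIB (1:250 dilution of concentrated stock) or mock-infected, were exposed to 1:3 serially diluted compounds in RPMI with 10% FBS. After 5 days at 37° C., CellTiter-Glo luminescence was read. EC50 = concentration causing […], from sigmoidal dose-response fits.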
For orientation: In ATP-based viability assays light output follows the ATP content of the culture.
In the case of `CCCC(CCC)COC(=O)C(C)(C)NP(=O)(CO[C@H](C)Cn1cnc2c(N)ncnc21)NC(C)(C)C(=O)OCC(CCC)CCC` [Example 69, Bis(2-propylpentyl) 2,2′-(((((1-(6-amino-9H-purin-9-yl)propan-2-yl)oxy)methyl)phosphoryl)bis(azanediyl))(R)-bis(2-methylpropanoate)], the EC50 (commonly the midpoint of the concentration-response curve) was 24 nM.
Then `C[C@H](Cn1cnc2c(N)ncnc21)OCP(=O)(NC(C)(C)C(=O)O[C@H]1CC[C@H](C(F)(F)F)CC1)NC(C)(C)C(=O)O[C@H]1CC[C@H](C(F)(F)F)CC1` [Example 21, Bis(trans-4-(trifluoromethyl)cyclohexyl) 2,2′-((((((R)-1-(6-amino-9H-purin-9-yl)propan-2-yl)oxy)methyl)phosphoryl)bis(azanediyl))bis(2-methylpropanoate)], with 7 nM; and `CCCCCCOC(=O)C(C)(C)NP(=O)(CO[C@H](C)Cn1cnc2c(N)ncnc21)NC(C)(C)C(=O)OCC1(F)CC1` (stereo partly drawn) [Example 78, (1-Fluorocyclopropyl)methyl 2-((((((R)-1-(6-amino-9H-purin-9-yl)propan-2-yl)oxy)methyl)((1-(hexyloxy)-2-methyl-1-oxopropan-2-yl)amino)phosphoryl)amino)-2-methylpropanoate], with above 500 nM.
The value for `CCCCCCOC(=O)C(C)(C)NP(=O)(CO[C@H](C)Cn1cnc2c(NC(=O)CCCC(=O)OCc3oc(=O)oc3C)ncnc21)NC(C)(C)C(=O)OCCCCCC` [Example 99, (5-Methyl-2-oxo-1,3-dioxol-4-yl)methyl 5-[[9-[(2R)-2-[bis[(2-hexoxy-1,1-dimethyl-2-oxo-ethyl)amino]phosphorylmethoxy]propyl]purin-6-yl]amino]-5-oxo-pentanoate] was 91 nM; that for `CCC[C@H]1CC[C@H](COC(=O)C(C)(C)NP(=O)(CO[C@H](C)Cn2cnc3c(N)ncnc32)NC(C)(C)C(=O)OC[C@H]2CC[C@H](CCC)CC2)CC1` [Example 92] was 23 nM.
Regarding `C[C@H](Cn1cnc2c(N)ncnc21)OCP(=O)(NC(C)(C)C(=O)OC(C)(C)C)NC(C)(C)C(=O)OC(C)(C)C` [Example 9, Di-tert-butyl 2,2′-(((((1-(6-amino-9H-purin-9-yl)propan-2-yl)oxy)methyl)phosphoryl)bis(azanediyl))(R)-bis(2-methylpropanoate)], a half-maximal effect (EC50) was put at 169 nM.
The value for `CCCCCCOC(=O)C1(NP(=O)(CO[C@H](C)Cn2cnc3c(N)ncnc32)NC2(C(=O)OCCCCCC)CCC2)CCC1` [Example 19, Dihexyl 1,1′-(((((1-(6-amino-9H-purin-9-yl)propan-2-yl)oxy)methyl)phosphoryl)bis(azanediyl))(R)-bis(cyclobutane-1-carboxylate)] was 30 nM; that for `C[C@H](Cn1cnc2c(N)ncnc21)OCP(=O)(NC(C)(C)C(=O)OCC(C)(C)C)NC(C)(C)C(=O)OCC(C)(C)C` [Example 5] was 5 nM.
Turning to `C[C@H](Cn1cnc2c(N)ncnc21)OCP(=O)(NC(C)(C)C(=O)OCC1CCC1)NC(C)(C)C(=O)OCC1CCC1` [Example 37, Bis(cyclobutylmethyl) 2,2′-(((((1-(6-amino-9H-purin-9-yl)propan-2-yl)oxy)methyl)phosphoryl)bis(azanediyl))(R)-bis(2-methylpropanoate)], the EC50 is 4 nM.
Then `C[C@H](Cn1cnc2c(N)ncnc21)OCP(=O)(NC(C)(C)C(=O)OC1CCCCC1)NC(C)(C)C(=O)OC1CCCCC1` [Example 40, Dicyclohexyl 2,2′-(((((1-(6-amino-9H-purin-9-yl)propan-2-yl)oxy)methyl)phosphoryl)bis(azanediyl))(R)-bis(2-methylpropanoate)], with 6 nM.
As for `C[C@H](Cn1cnc2c(N)ncnc21)OCP(=O)(NC(C)(C)C(=O)OCC1CC2(CCC2)C1)NC(C)(C)C(=O)OCC1CC2(CCC2)C1` (stereo partly drawn) [Example 50, Bis(spiro[3.3]heptan-2-ylmethyl) 2,2′-(((((1-(6-amino-9H-purin-9-yl)propan-2-yl)oxy)methyl)phosphoryl)bis(azanediyl))(R)-bis(2-methylpropanoate)], it took 7 nM to reach a half-maximal effect (EC50).
